Results: article PMC6915728 (Nature Communications, 2019)
Read-outs that look alike come from different tables or passages of the source.

How the values were obtained:
[1] = tested on: AMP-evolved E. coli lines; details: ref Spohn et al 2019, cited from earlier work
From the text: Supplement 41467_2019_13618_MOESM13_ESM.xlsx, sheet "Figure 6 and S15" | column: A comprehensive dataset of antimicrobial susceptibility of AMP-adapted lines to antimicrobial peptides (AMPs).

[2] = tested on: bacterial species in which the gene showed activity; details: cited from earlier work
[3] = tested on: E. coli BW25113 overexpression strains (ASKA plasmids); assay: Minimum inhibitory concentration (MIC), serial broth dilution, single-gene overexpression strains vs empty-vector control; assay type: cell-based, Escherichia coli; details: for Relative MIC: broth dilution, MS medium, 100 µM IPTG, 30 °C, 20-24 h, OD600, 3 replicates
Outline: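 E. coli overexpression strains grown in MS medium with chloramphenicol, induced with 100 µM IPTG for 1 h at 30 °C, then about half-million cells inoculated into 12-step AMP dilutions (typically 1.2-fold steps). OD600 read after 20–24 h at 30 °C with shaking; triplicate strains compared with empty-vector control.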

In the case of “LLGDFFRKSKEKIGKEFKRIVQRIKDFLRNLVPRTES [LL37, LL-37 human cathelicidin, human host-defense peptide; disrupts cell membrane; cluster C2]”, the “Relative change in MIC (MIC of the AMP-adpated line / MIC of the ancestral strain)” value ([1]; AMP-adapted line BAC5_3) is listed as 1, the “Relative change in MIC (MIC of the AMP-adpated line / MIC of the ancestral strain)” value ([1]; AMP-adapted line BAC5_5) is listed as 1.2 and the “Relative change in MIC (MIC of the AMP-adpated line / MIC of the ancestral strain)” value ([1]; AMP-adapted line BAC5_7) is listed as 1.1. For the same sequence, the “Relative change in MIC (MIC of the AMP-adpated line / MIC of the ancestral strain)” value ([1]; AMP-adapted line BAC5_10) was 1.1, the “Relative change in MIC (MIC of the AMP-adpated line / MIC of the ancestral strain)” value ([1]; AMP-adapted line CAP18_2) was 6.3 and the “Relative change in MIC (MIC of the AMP-adpated line / MIC of the ancestral strain)” value ([1]; AMP-adapted line CAP18_5) was 3.7. For the same sequence, the “Relative change in MIC (MIC of the AMP-adpated line / MIC of the ancestral strain)” value ([1]; AMP-adapted line CAP18_6) was 1.2, the “Relative change in MIC (MIC of the AMP-adpated line / MIC of the ancestral strain)” value ([1]; AMP-adapted line CAP18_8) was 6.3 and the “Relative change in MIC (MIC of the AMP-adpated line / MIC of the ancestral strain)” value ([1]; AMP-adapted line CAP18_10) was 8.2. The “Relative change in MIC (MIC of the AMP-adpated line / MIC of the ancestral strain)” value ([1]; AMP-adapted line HBD3_3) was 1.7, the “Relative change in MIC (MIC of the AMP-adpated line / MIC of the ancestral strain)” value ([1]; AMP-adapted line HBD3_6) was 1.2 and the “Relative change in MIC (MIC of the AMP-adpated line / MIC of the ancestral strain)” value ([1]; AMP-adapted line HBD3_8) was 1.7. For the same sequence, the “Relative change in MIC (MIC of the AMP-adpated line / MIC of the ancestral strain)” value ([1]; AMP-adapted line HBD3_10) was 1.7, the “Relative change in MIC (MIC of the AMP-adpated line / MIC of the ancestral strain)” value ([1]; AMP-adapted line PEX_1) was 1.1 and the “Relative change in MIC (MIC of the AMP-adpated line / MIC of the ancestral strain)” value ([1]; AMP-adapted line PEX_4) was 16. For the same sequence, the “Relative change in MIC (MIC of the AMP-adpated line / MIC of the ancestral strain)” value ([1]; AMP-adapted line PEX_5) was 0.9, the “Relative change in MIC (MIC of the AMP-adpated line / MIC of the ancestral strain)” value ([1]; AMP-adapted line PEX_6) was 1 and the “Relative change in MIC (MIC of the AMP-adpated line / MIC of the ancestral strain)” value ([1]; AMP-adapted line PEX_7) was 1. The “Relative change in MIC (MIC of the AMP-adpated line / MIC of the ancestral strain)” value ([1]; AMP-adapted line PR39_1) was 1.2, the “Relative change in MIC (MIC of the AMP-adpated line / MIC of the ancestral strain)” value ([1]; AMP-adapted line PR39_2) was 1.2 and the “Relative change in MIC (MIC of the AMP-adpated line / MIC of the ancestral strain)” value ([1]; AMP-adapted line PR39_5) was 0.9. For the same sequence, the “Relative change in MIC (MIC of the AMP-adpated line / MIC of the ancestral strain)” value ([1]; AMP-adapted line PR39_7) was 1, the “Relative change in MIC (MIC of the AMP-adpated line / MIC of the ancestral strain)” value ([1]; AMP-adapted line PR39_10) was 0.8 and the “Relative change in MIC (MIC of the AMP-adpated line / MIC of the ancestral strain)” value ([1]; AMP-adapted line PROA_2) was 1. The “Relative change in MIC (MIC of the AMP-adpated line / MIC of the ancestral strain)” value ([1]; AMP-adapted line PROA_3) was 0.8, the “Relative change in MIC (MIC of the AMP-adpated line / MIC of the ancestral strain)” value ([1]; AMP-adapted line PROA_7) was 0.9 and the “Relative change in MIC (MIC of the AMP-adpated line / MIC of the ancestral strain)” value ([1]; AMP-adapted line PROA_8) was 1. The “Relative change in MIC (MIC of the AMP-adpated line / MIC of the ancestral strain)” value ([1]; AMP-adapted line PROA_9) was 0.9, the “Relative change in MIC (MIC of the AMP-adpated line / MIC of the ancestral strain)” value ([1]; AMP-adapted line PXB_2) was 1 and the “Relative change in MIC (MIC of the AMP-adpated line / MIC of the ancestral strain)” value ([1]; AMP-adapted line PXB_5) was 0.9. For the same sequence, the “Relative change in MIC (MIC of the AMP-adpated line / MIC of the ancestral strain)” value ([1]; AMP-adapted line PXB_6) was 1, the “Relative change in MIC (MIC of the AMP-adpated line / MIC of the ancestral strain)” value ([1]; AMP-adapted line PXB_8) was 1 and the “Relative change in MIC (MIC of the AMP-adpated line / MIC of the ancestral strain)” value ([1]; AMP-adapted line PXB_10) was 1. The “Gene that modulates bacterial susceptibility to the AMP” value ([2]; Bordetella pertussis, ref http://www.ncbi.nlm.nih.gov/pmc/articles/PMC4136009/) was “lgmA, IgmB, IgmC”, the “Gene that modulates bacterial susceptibility to the AMP” value ([2]; Enterobacteriaceae, ref https://www.ncbi.nlm.nih.gov/pmc/articles/PMC3264287/, https://onlinelibrary.wiley.com/doi/full/10.1111/j.1348-0421.2010.00238.x, https://jb.asm.org/content/180/15/4002.full) was “ompT” and the “Gene that modulates bacterial susceptibility to the AMP” value ([2]; Enterococcus faecalis, ref http://www.jbc.org/content/279/51/52820.full.pdf) was “sprE”. For the same sequence, the “Gene that modulates bacterial susceptibility to the AMP” value ([2]; Enterococcus faecalis, ref https://www.ncbi.nlm.nih.gov/pmc/articles/PMC2976315/) was “gelE”, the “Gene that modulates bacterial susceptibility to the AMP” value ([2]; Group A Streptococcus pyogenes, ref http://www.ncbi.nlm.nih.gov/pmc/articles/PMC3241932/pdf/nihms218493.pdf) was “emm1” and the “Gene that modulates bacterial susceptibility to the AMP” value ([2]; Neisseria meningitidis, gene siaC, ref http://jb.asm.org/content/191/12/3861.full.pdf+html) was “siaC”. The “Gene that modulates bacterial susceptibility to the AMP” value ([2]; Neisseria meningitidis, gene siaD, ref http://jb.asm.org/content/191/12/3861.full.pdf+html) was “siaD”, the “Gene that modulates bacterial susceptibility to the AMP” value ([2]; Proteus mirabilis, ref http://www.ncbi.nlm.nih.gov/pmc/articles/PMC517467/pdf/0713-04.pdf) was “zapA” and the “Gene that modulates bacterial susceptibility to the AMP” value ([2]; Pseudomonas aeruginosa, ref http://portal.research.lu.se/portal/files/2657079/623699.pdf) was “lasA, IsaB”. For the same sequence, the “Gene that modulates bacterial susceptibility to the AMP” value ([2]; Salmonella typhimurium, Escherichia coli, ref https://www.ncbi.nlm.nih.gov/pmc/articles/PMC3037666/, https://www.ncbi.nlm.nih.gov/pmc/articles/PMC4808223/) was “amiA, amiC”, the “Gene that modulates bacterial susceptibility to the AMP” value ([2]; Salmonella typhimurium, ref http://www.sciencedirect.com/science/article/pii/S1368764616300024) was “waaY” and the “Gene that modulates bacterial susceptibility to the AMP” value ([2]; Staphylococcus aureus, ref http://aac.asm.org/content/48/12/4673.full.pdf+html) was “aur (aureolysin)”. The “Gene that modulates bacterial susceptibility to the AMP” value ([2]; Staphylococcus aureus, ref http://onlinelibrary.wiley.com/doi/10.1111/j.1365-2958.2007.05986.x/epdf) was “apsS”, the “Gene that modulates bacterial susceptibility to the AMP” value ([2]; Streptococcus pyogenes, ref http://www.jbc.org/content/279/51/52820.full.pdf) was “speB” and the “Gene that modulates bacterial susceptibility to the AMP” value [2] was “pgtE and pla”. For the same sequence, the “Average relative change in MIC” value ([3]; mlaD overexpression strain relative to control (wild-type+empty vector), 3 replicates each, from optical density values of serial dilution plates, AMP in µg ml-1) was 2.42, the “Relative MIC” value ([3]; overexpression strain gadW, MIC of overexpression strain / MIC of empty-plasmid control) was 0.79 and the “Relative MIC” value ([3]; overexpression strain hyfA, MIC of overexpression strain / MIC of empty-plasmid control) was 0.74. The “Relative MIC” value ([3]; overexpression strain lptB, MIC of overexpression strain / MIC of empty-plasmid control) was 1.2, the “Relative MIC” value ([3]; overexpression strain mlaC, MIC of overexpression strain / MIC of empty-plasmid control) was 1.43 and the “Relative MIC” value ([3]; overexpression strain mlaD, MIC of the overexpression strain / MIC of the control strain (wild-type carrying the empty plasmid)) was 2.5. The “Relative MIC” value ([3]; overexpression strain yijE, MIC of overexpression strain / MIC of empty-plasmid control) was 1.2 and the “Relative MIC” value ([3]; overexpression strain ytjB, MIC of overexpression strain / MIC of empty-plasmid control) was 1.2.
